According to article PMC3087488 (Journal of Oncology, 2011):

Assays:
[1] = phase 1b dose escalation: dose-limiting toxicities and MTD; settings: in combination with panitumumab and gemcitabine/cisplatin; patients with advanced solid tumors
advanced solid tumors = assay: tumor response per modified RECIST; settings: for Confirmed complete response / Confirmed objective response, % (95% CI) / Confirmed partial response / Durable stable disease (≥24 weeks) / Progressive disease / Stable disease / Unevaluable / Clinical benefit rate (CR + PR + durable SD): gemcitabine/cisplatin
cytochrome P 450 3A = settings: cited from earlier work
PDGFR = tested on: PDGFR; design: method as in PMID 16951187; settings: cited from earlier work
[2] = motesanib plasma pharmacokinetics in patients; format: in vivo, human
Protocol: Plasma motesanib and gemcitabine concentrations were analyzed using a validated liquid chromatography/tandem mass spectrometry (LC-MS/MS) method, respectively. […] All pharmacokinetic parameter estimates were calculated using standard noncompartmental methods and WinNonlin Professional software on […] (Version 5.1.1, Pharsight Corporation, Mountain View, Calif, USA).

[3] = tested on: human umbilical vein endothelial cell (HUVEC) proliferation; design: method as in PMID 16951187; settings: cited from earlier work
[4] = motesanib 50 mg QD (n = 8) + panitumumab
[5] = motesanib 75 mg BID (n = 2) + panitumumab
[6] = motesanib 75 mg QD (n = 6) + panitumumab
[7] = motesanib 100 mg QD (n = 6) + panitumumab
[8] = motesanib 125 mg QD (n = 11) + panitumumab

CC1(C)CNc2cc(NC(=O)c3cccnc3NCc3ccncc3)ccc21 [motesanib]
maximum tolerated dose (MTD) of motesanib [1]: 100 mg QD | patients with durable (≥24 weeks) stable disease (advanced solid tumors; all 41 patients): six | patients with confirmed partial response (advanced solid tumors; all 41 patients incl. 0-mg cohort): 9 patients | confirmed objective response (advanced solid tumors; all 41 patients incl. 0-mg cohort, 10 patients, 95% CI, 12.4–40.3): 24% | patients with best response of stable disease (advanced solid tumors; all 41 patients, twenty patients): 49% | median progression-free survival (advanced solid tumors; all patients): 197 days | Kaplan-Meier estimate of median progression-free survival (advanced solid tumors; all patients, 95% CI: 2.8—not estimable): 28 weeks | patients with complete response as best objective response (advanced solid tumors; all patients, breast cancer): One | Confirmed complete response (advanced solid tumors; [4]): 0 (0) n (%) | Confirmed objective response, % (95% CI) (advanced solid tumors; [4]): 0 (0–36.9) % | Confirmed partial response (advanced solid tumors; [4]): 0 (0) n (%) | Durable stable disease (≥24 weeks) (advanced solid tumors; [4]): 0 (0) n (%) | Progressive disease (advanced solid tumors; [4]): 2 (25) n (%) | Stable disease (advanced solid tumors; [4]): 5 (63) n (%) | Unevaluable (advanced solid tumors; [4]): 0 (0) n (%) | Clinical benefit rate (CR + PR + durable SD) (advanced solid tumors; [5]): 2 (100) n (%) | Confirmed complete response (advanced solid tumors; [5]): 0 (0) n (%) | Confirmed objective response, % (95% CI) (advanced solid tumors; [5]): 50 (1.3–98.7) % | Confirmed partial response (advanced solid tumors; [5]): 1 (50) n (%) | Durable stable disease (≥24 weeks) (advanced solid tumors; [5]): 0 (0) n (%) | Progressive disease (advanced solid tumors; [5]): 0 (0) n (%) | Stable disease (advanced solid tumors; [5]): 1 (50) n (%) | Unevaluable (advanced solid tumors; [5]): 0 (0) n (%) | Confirmed complete response (advanced solid tumors; [6]): 0 (0) n (%) | Confirmed objective response, % (95% CI) (advanced solid tumors; [6]): 17 (0.4–64.1) % | Confirmed partial response (advanced solid tumors; [6]): 1 (17) n (%) | Durable stable disease (≥24 weeks) (advanced solid tumors; [6]): 3 (50) n (%) | Progressive disease (advanced solid tumors; [6]): 0 (0) n (%) | Stable disease (advanced solid tumors; [6]): 4 (67) n (%) | Unevaluable (advanced solid tumors; [6]): 1 (17) n (%) | Clinical benefit rate (CR + PR + durable SD) (advanced solid tumors; [7]): 6 (100) n (%) | Confirmed partial response (advanced solid tumors; [7]): 3 (50) n (%) | Durable stable disease (≥24 weeks) (advanced solid tumors; [7]): 1 (17) n (%) | Progressive disease (advanced solid tumors; [7]): 0 (0) n (%) | Stable disease (advanced solid tumors; [7]): 2 (33) n (%) | Unevaluable (advanced solid tumors; [7]): 0 (0) n (%) | Clinical benefit rate (CR + PR + durable SD) (advanced solid tumors; [8]): 6 (55) n (%) | Confirmed complete response (advanced solid tumors; [8]): 0 (0) n (%) | Confirmed objective response, % (95% CI) (advanced solid tumors; [8]): 18 (2.3–51.8) % | Confirmed partial response (advanced solid tumors; [8]): 2 (18) n (%) | Durable stable disease (≥24 weeks) (advanced solid tumors; [8]): 1 (9) n (%) | Progressive disease (advanced solid tumors; [8]): 1 (9) n (%) | Stable disease (advanced solid tumors; [8]): 4 (36) n (%) | Unevaluable (advanced solid tumors; [8]): 1 (9) n (%) | patients with complete response, partial response, or stable disease as best response (advanced solid tumors; of the 41 patients enrolled): 30 patients | route of metabolism (cytochrome P 450 3A): primarily metabolized by glucuronidation and cytochrome P 450 3A-mediated oxidation | IC50 (PDGFR): 84 nM | concentration at 24 h ([2]; human, in vivo, mean daily motesanib C 24 (above IC50 for HUVEC proliferation)): > 4 ng/mL | concentration at 24 h ([2]; human, in vivo, mean daily motesanib C 24 (higher than IC90 for HUVEC proliferation)): > 28 ng/mL | half-life ([2]; human, in vivo, mean estimated terminal elimination half-life (t 1/2,z)): 313 to 403 min | Tmax ([2]; human, in vivo, po): ~1 h | C max, mean (SD) ([2]; motesanib 75 mg QD (n = 3 − 6), single dose, + panitumumab, gemcitabine/cisplatin): 186 (92) ng/mL | 90% inhibitory concentration (IC90) for HUVEC proliferation [3]: 28 ng/mL | IC50 for HUVEC proliferation [3]: 4 ng/mL
